According to patent US4511559A, “Biologically active polysaccharide concentrates and process for production of preparates containing such substances” (Kozponti Valto-es Hitelbank Rt. InnovacioAlap, priority 1982, dated 1985):
Like-named read-outs stand apart in the source and are kept apart here.

Tests used:
[1] = test system: rat paw carrageenan oedema; assay: rat paw carrageenan oedema test (anti-inflammatory activity); assay type: in vivo; details: for Anti-inflammatory activity %: table 4; for ED50: Rattus norvegicus, po, reference standard
Description: (§1) The anti-inflammatory activity of the polysaccharide concentrates produced according to the invention was investigated on the rat paw carrageenan oedema test according to Winter et al. [Proc. Soc. Exp. Biol. Med. 111. 544. (1962)]. The concentrate has a significant specific activity and in connection with its advantageous anti-inflammatory activity it posseses a remarkably low toxicity.

[2] = test system: adjuvans arthritis in rat; assay: adjuvans arthritis in rat (chronic inflammation model); assay type: in vivo; details: 50 mg/kg, intraperitoneal, 3 weeks
Description: The polysaccharides produced according to the invention show significant effectivity on chronic inflammation models too, for example on adjuvans arthritis in rat, at intraperitoneal treatment for 3 weeks: […]

[3] = test system: rat; assay: in vivo; details: table 4
Procedure: (§2) The anti-inflammatory activity of the polysaccharide concentrate according to the invention was investigated intraperitoneally on rat according to the paw carrageenan oedema test. Simultaneously the LD50 values of the polysaccharide concentrates (i.p.) were determined.
(§3) The anti-inflammatory activity of the prepared polysaccharide concentrates was determined in comparison to the indomethancin as well using the rat paw carrageenan oedema test. The polysaccharide sample was intraperitoneally injected one hour before the inflammation inducing carrageenan. As reference standard per os applied indomethacin was used, which was suspended in 1% methylcellulose solution, and given through a gastric tube into the stomach one hour prior to the administration of Carrageenan to CFY rats and CFLP mice. The dosage was the same during the toxicity studies as well.
(§4) To develop the PG phase 5 hours are required from the injection of the inflammation inducing carrageenan.

[4] = in vivo; details: rat, in vivo, po, LD50, p.o.
Procedure: as §2, §3, §4

[5] = rat paw carrageenan oedema test (anti-inflammatory activity); assay type: in vivo; details: rat, in vivo, po, read-out: Therapeutic index LD50/ED50
Description: as §1

SMILES | Anti-inflammatory activity % ([1]; 90 mg/kg p.o.) [%] | inhibition ([1]; 100 mg/kg, standard) [%] | Inhibiton ([1]; intraperitoneally, rat, 100 mg/kg) [%] | Anti-inflammatory activity % [2] [%] | Anti-inflammatory activity % ([1]; 400 mg/kg p.o.) [%] | Dose/LD50 ratio ([3]; dose 400 mg/kg p.o.) | LD50 ([4]; table 4) [mg/kg] | Anti-inflammatory activity % ([1]; 10 mg/kg p.o.) [%] | ED50 ([1]; 2 hours) [mg/kg] | ED50 ([1]; 5 hours) [mg/kg] | selectivity ratio ([5]; 2 hours) | selectivity ratio ([5]; 5 hours) | Dose/LD50 ratio ([3]; dose 10 mg/kg p.o.) | LD50 ([4]; table 2) [mg/kg]
CCCCC1C(=O)N(c2ccccc2)N(c2ccccc2)C1=O [Phenylbutazone, phenylbutazone] | 40 | 45 | 45.0 | 64 | – | – | – | – | – | – | – | – | – | –
CC(=O)Oc1ccccc1C(=O)O [Aspyrine] | – | – | – | – | 36 | 0.330 | 1200 | – | – | – | – | – | – | –
COc1ccc2c(c1)c(CC(=O)O)c(C)n2C(=O)c1ccc(Cl)cc1 [Indomethacin, indomethacin] | – | – | – | – | – | – | 17 | 51 | 3.14 | 2.2 | 10.2 | 14.5 | 0.580 | 32
